The test system of assay [1] is S. aureus N315 pRB474-lugIEFGH. Description: MIC determination, broth microdilution in BM. It counts as cell-based, Staphylococcus aureus. As to conditions: for Effect of constitutive LugIEFGH expression on S. aureus susceptibility (in words): S. aureus pRB474-lugIEFGH compared with S. aureus pRB474 (Fig. 4); for MIC S. aureus pRB474-lugIEFGH: Table S2, mean MIC in BM-medium, 37°C, 24 h, 75% growth reduction, at least three independent experiments; for Ratio of MICs, S. aureus pRB474-lugIEFGH versus S. aureus pRB474: Table S2 / Fig. 4b, BM-medium. For orientation: Dilution methods test growth across graded concentrations, often in twofold steps.
Experimental: (§1) Further strains used for MIC determination were S. aureus N315 with plasmids pRB474, pRB474-lugI, pRB474-lugEF, pRB474-lugIEF, pRB474-lugGH, pRB474-lugIGH, pRB474-lugEFGH, and pRB474-lugIEFGH.
(§2) If necessary, antibiotic was used at a concentration of 10 μg ml^−1 for chloramphenicol.
(§3) Strains used for MIC determinations were grown overnight in BM, with chloramphenicol for plasmid-containing strains, under continuous shaking at 37°C. Each strain was adjusted to OD600 of 0.0625 in BM. The antimicrobial molecule stock solutions were serially diluted in BM in 96-well microtiter plates. Each well with 100 μl medium, and chloramphenicol, if required, was inoculated with 2 μl of the OD600 of 0.0625 bacterial stock solution. The plates were incubated at 37°C for 24 h under continuous shaking (160 rpm). The OD600 of each well was measured with a microplate reader, and the concentration leading to a 75% growth reduction was calculated and defined as the MIC value.

Assay [2] relates to S. aureus N315 pRB474. As to the kind of experiment: MIC determination, broth microdilution in BM. As to conditions: Table S2, mean MIC in BM-medium; empty vector strain; 37°C, 24 h, 75% growth reduction; at least three independent experiments. It counts as cell-based, Staphylococcus aureus.
Experimental: as §1, §2, §3

As for `N#CC(C#N)=NNc1cccc(Cl)c1` [CCCP, carbonyl cyanide m-chlorophenylhydrazone], in assay [1], the “Effect of constitutive LugIEFGH expression on S. aureus susceptibility (in words)” value (shortened to “Effect”) was “did not affect the susceptibility”; the MIC S. aureus pRB474-lugIEFGH was found to be 0.64 µg/mL; the “Ratio of MICs, S. aureus pRB474-lugIEFGH versus S. aureus pRB474” value (from here on “Ratio of MICs”) stood at 1.02. For the same compound, the MIC S. aureus pRB474 in assay [2] worked out at 0.63 µg/mL.
As for gramicidin S, in assay [1], the “Effect” value is given as “did not affect the susceptibility”; the MIC S. aureus pRB474-lugIEFGH stood at 2.74 µg/mL; the “Ratio of MICs” value came to 1.00. Further, in assay [2], the MIC S. aureus pRB474 stood at 2.75 µg/mL.
Consider 6-Trp-lugdunin, for which, in assay [1], the “Effect” value is reported as “Similar, though even less pronounced”; the MIC S. aureus pRB474-lugIEFGH was 31.1 µg/mL; the “Ratio of MICs” value worked out at 1.89. Moreover, in assay [2], the MIC S. aureus pRB474 was found to be 16.4 µg/mL.
Taken in the same sequence, the figures for 2-Ala-lugdunin were “no resistance against the 2-Ala congener was conferred”, 39.9 µg/mL, 0.99 and 40.2 µg/mL.
With `CO[C@@H]1C[C@@H](C[C@H]2CC[C@H](C)[C@H]([C@@H](C)C(=O)O)O2)O[C@]2(O[C@](C)([C@H]3CC[C@@](C)([C@@H]4O[C@@H]([C@H]5O[C@@](O)(CO)[C@H](C)C[C@@H]5C)C[C@@H]4C)O3)C[C@H]2C)[C@@H]1C` [nigericin], in assay [1], the “Effect” value is recorded as “did not affect the susceptibility”; the MIC S. aureus pRB474-lugIEFGH stood at 0.25 µg/mL; the “Ratio of MICs” value amounted to 1.00. The compound further gave an MIC S. aureus pRB474 in assay [2] of 0.25 µg/mL.
On to enantio-lugdunin, for which, in assay [1], the “Effect” value is “some degree of resistance”; the MIC S. aureus pRB474-lugIEFGH was found to be 69.8 µg/mL; the “Ratio of MICs” value came to 2.23. For the same compound, the MIC S. aureus pRB474 in assay [2] came out at 31.3 µg/mL.
For daptomycin, in assay [1], the “Effect” value is on record as “did not affect the susceptibility”; the MIC S. aureus pRB474-lugIEFGH was determined as 2.17 µg/mL; the “Ratio of MICs” value amounted to 1. In assay [2], this compound showed an MIC S. aureus pRB474 of 2.17 µg/mL.

The record behind these values is publication PMC7927808 (Antimicrobial Agents and Chemotherapy, 2020).
